Laboratory results as given in US10933113B2, “Use of a compound, pharmaceutical composition, and therapeutic method for the treatment or prevention of convulsions” (PROTEIMAX BIO[…]A, priority 2016, dated 2021).

Test system: pilocarpine model
Test: pilocarpine model, oral test compound 10 minutes before intraperitoneal pilocarpine
Assay type: in vivo, Mus musculus or mouse
Description: In some instances, the anticonvulsive effects of the composition of the invention have been evaluated in vivo upon oral administration to animals. The pharmaceutical composition of the invention was administered to mammals (Mus musculus or mouse) with oral dose of treatment, as compared to other compounds or to saline control. In these experiments, the test compounds were administered orally 10 minutes prior to the (intraperitoneal) administration of pilocarpine. Pilocarpine hydrochloride (320 mg/kg, Merck), dissolved in 0.9% sterile saline, was given intraperitoneally for induction of SE (status epileticus) (Turski et al., 1983). In the Turski model, the neurotoxic effects begin about 15-25 minutes after the injection of Pilo, with the occurrence of motor and limbic seizures, the animals evolving to a state of continuous (clonic) seizures that characterize SE Sanabria and Cavalheiro, 2000).
In this embodiment, the anticonvulsant effect of the composition of the invention prepared according to example 1 was evaluated by prior administration of the inventive composition and subsequent administration of pilocarpine to animals. Administration of pilocarpine leads to severe brain damage, neurotoxicity, and usually culminates in the death of animals.
The composition of the invention prepared according to Example 1 was pre-administered to the animals.

[1] = 1000 μg/kg oral, group n=5, pilocarpine 320 mg/kg i.p.

Row | Compound | survival time compared with control (FIG. 1) (600 μg/kg oral) | number of animals that died in the group [1] | remaining animals that remained alive for more than a week [1] | mean survival time for the group (1000 μg/kg oral, versus control, Hp 600 μg/kg, DIIADDEPLT 1000 μg/kg) | occurrence of typical side effects of other anticonvulsants, such as prostration and nasal bleeding (oral administration, mice) | brain injury related symptoms and survival after pilocarpine (prior oral administration of the composition of Example 1) | time for the occurrence of the first salivation (FIG. 4) (prior oral administration, pilocarpine-induced salivation) | time for the occurrence of the first seizure (FIG. 6), P vs Control, Hp 600 μg/kg, Pep19 1000 μg/kg (starred group, by exclusion Hp 1000 μg/kg oral) | survival time compared with control (FIG. 1) (1000 μg/kg oral)
1 | CC(C)C[C@H](NC(=O)[C@H](Cc1ccccc1)NC(=O)[C@H](CCCCN)NC(=O)[C@H](Cc1ccccc1)NC(=O)[C@H](CC(N)=O)NC(=O)[C@@H](NC(=O)[C@@H]1CCCN1)C(C)C)C(=O)N[C@@H](CO)C(=O)N[C@@H](Cc1cnc[nH]1)C(=O)O [Hp, PVNFKFLSH] | not statistically significant | one | 4 | significantly different and higher than the others | has not been observed | the vast majority of the animals subjected to these experiments had no brain injury related symptoms and survived without apparent damage | substantial change in the time profile for the occurrence of the first salivation | < 0.001 | –
2 | DIIADDEPLT [peptide used as another control, reference compound] | – | – | – | – | – | – | – | – | not statistically significant
